Laboratory results reported in patent US20220288404A1, “METHODS FOR APPLYING TUMOR TREATING FIELDS IN COMBINATION WITH CANCER TREATING THERAPEUTICS” (THE BOARD OF REGENTS OF THE UNIVERSITY OF TEXAS SYSTEM, priority 2021, published 2022).

Legend:
Assay type in all cases: cell-based
[1] = system: H157 cells; assay: Clonogenic cell survival assay, H157 cells; settings: for CI TTFields + CP / CI 5FU + 2Gy / CI TTFields + 5FU / CI TTFields + 5FU + 2Gy / CI Irino + 2Gy / CI TTFields + Irino / CI TTFields + Irino + 2Gy: CI>1 synergistic; for surviving fraction: agent as shown in figure
Protocol: (§1) Using certain embodiments disclosed herein, TTFields in combination with various inhibitors and/or radiation treatment (IR) were applied to NSCLC cells or pancreatic cancer cells. For example, a predetermined inhibitor at a predetermined concentration was delivered to NSCLC cells or pancreatic cancer cells, and the cells were immediately exposed to TTFields (e.g., 100-250 kHz and 1-20 V/cm v/cm) for about 24, […], or 72 hours. The predetermined concentration was a cell line specific concentration for optimal target cell killing. Then, the cells were irradiated (at a dose of 2Gy) for less than a minute (e.g., 3.25 Gy/min) and immediately plated for survival.
(§2) FIGS. 4 and 5 depict example effects of TTFields, AZD6738, radiation, and a combination thereof on non-small cell lung cancer cells (NSCLC) and pancreatic cancer cell, respectively. In particular, FIGS. 4 and 5 show TTFields exposure synergistically increases the effects of ATR inhibitor AZD6738 on NSLCL cells (FIG. 4) survival and pancreatic cancer cell (FIG. 5) survival. TTFields were used together with ATR inhibitor AZD6738 and radiation (IR). A synergistic effect was observed when AZD6738 and IR were combined with TTFields using the highest single agent (HSA) approach. The following formulas were used for calculating CI: SF=Survival Fraction; CI (TTFields)+(2Gy)=(SF2Gy×SFTTFields)/SF2Gy+TTFields; CI(TTFields)+(AZD)=(SFAZD×SFTTFields)/SFAZD+TTFields; CI (2Gy)+(AZD)=(SF2Gy×SFAZD)/SF2Gy+AZD; and CI (TTFields)+(2Gy)+(AZD)=(SF2Gy×SFAZD×SFTTFields)/SFTTFields+2Gy+AZD.
(§3) The following formulas are used for calculating the combination Index: SF=Survival Fraction; CI (TTFields)+(2Gy)=(SF2Gy×SFTTFields)/SF2Gy+TTFields; CI(TTFields)+(Irino)=(SFIrino×SFTTFields)/SFIrino+TTFields; CI (2Gy)+(Irino)=(S2Gy×SFIrino)SF2Gy+Irino; and CI (TTFields)+(2Gy)+(Irino)=(SF2Gy×SFIrino×SFTTFields)/SFTTFields+2Gy+Irino.

[2] = system: NSCLC; assay: Cell survival of NSCLC cells with CP/ETP with/without TTFields (FIG. 6); settings: HSA approach
Protocol: as §1
FIG. 6 depicts example effects of TTFields, Cisplatin, Etoposide, and a combination thereof on NSCLC. […] CP and ETP were tested alone or in combination and with/without TTFields.

[3] = system: H1299 cells; assay: Clonogenic cell survival assay, H1299 cells; settings: for CI TTFields + CP / CI 5FU + 2Gy / CI TTFields + 5FU / CI TTFields + 5FU + 2Gy / CI Irino + 2Gy / CI TTFields + Irino / CI TTFields + Irino + 2Gy: CI>1 synergistic; for surviving fraction: agent as shown in figure
Protocol: as §1, §2, §3

[4] = system: Panc-1 cells; assay: Clonogenic cell survival assay, Panc-1 cells; settings: for surviving fraction: agent as shown in figure; for CI Irino + 2Gy / CI TTFields + Irino / CI TTFields + Irino + 2Gy: CI>1 synergistic
Protocol: as §1, with “killing.” for “killing. Then, the cells were irradiated (at a dose of 2Gy) for less than a minute (e.g., 3.25 Gy/min) and immediately plated for survival.”
(§4) Olaparib was given concomitant with TTFields. Radiation was given 24, 48 or 72 h after the initiation of TTFields and specific agents. […] Values greater than 1.0 are considered as synergistic, that is, greater than the sum of the individual responses. The following formulas were used for calculating CI: SF=Survival Fraction; CI (TTFields)+(2Gy)=(SF2Gy×SFTTFields)/SF2Gy+TTFields; CI(TTFields)+(Olap)=(SFOlap×SFTTFields)/SFOlap+TTFields; CI (2Gy)+(Olap)=(SF2Gy×SFOlap)/SF2Gy+Olap; and CI (TTFields)+(2Gy)+(Olap)=(SF2Gy×SFOlap×SFTTFields)/SFTTFields+2Gy+Olap. […] Based upon the Highest Single Agent […] approach. The calculation for the Combination Index can be found below.
as §2, §3

[5] = system: 04.03 cells; assay: Clonogenic cell survival assay, 04.03 cells
Protocol: as §1, with “killing.” for “killing. Then, the cells were irradiated (at a dose of 2Gy) for less than a minute (e.g., 3.25 Gy/min) and immediately plated for survival.”
as §4, §2

[6] = system: H157 cells; assay: Clonogenic cell survival assay, H157 cells; settings: 48 h, CI>1 synergistic
[7] = system: H1299 cells; assay: Clonogenic cell survival assay, H1299 cells; settings: 48 h, CI>1 synergistic

Compound: N.N.[Cl][Pt][Cl] [CP, Cisplatin]
- CI TTFields + CP ([1]; 24 h): 0.887
- CI TTFields + CP ([1]; 48 h): 0.869
- CI TTFields + CP ([1]; 72 h): 1.079
- cell killing capacity in combination with TTFields [2]: synergistically enhanced
- CI TTFields + CP ([3]; 24 h): 1.140
- CI TTFields + CP ([3]; 48 h): 1.021
- CI TTFields + CP ([3]; 72 h): 1.225

Compound: O=c1[nH]cc(F)c(=O)[nH]1 [5FU, 5-Fluorouracil]
- effect of combinations of TTFields, agent and/or IR on cell survival [4]: synergistic effects
- surviving fraction [4]: significantly reduced
- effect of combinations of TTFields, agent and/or IR on cell survival [1]: synergistic effects
- CI 5FU + 2Gy ([1]; 24 h): 0.894
- CI TTFields + 5FU ([1]; 24 h): 1.559
- CI TTFields + 5FU + 2Gy ([1]; 24 h): 1.433
- CI 5FU + 2Gy ([1]; 48 h): 0.962
- CI TTFields + 5FU + 2Gy ([1]; 48 h): 1.783
- CI 5FU + 2Gy ([1]; 72 h): 1.125
- CI TTFields + 5FU ([1]; 72 h): 1.106
- CI TTFields + 5FU + 2Gy ([1]; 72 h): 1.658
- surviving fraction [1]: significantly reduced
- effect of combinations of TTFields, agent and/or IR on cell survival [5]: synergistic effects
- surviving fraction ([5]; agent as shown in figure): significantly reduced
- CI TTFields + 5FU [6]: 1.252
- CI TTFields + 5FU + 2Gy [7]: 1.263
- effect of combinations of TTFields, agent and/or IR on cell survival [3]: synergistic effects
- CI 5FU + 2Gy ([3]; 24 h): 1.254
- CI TTFields + 5FU ([3]; 24 h): 1.352
- CI TTFields + 5FU + 2Gy ([3]; 24 h): 1.762
- CI 5FU + 2Gy ([3]; 48 h): 0.950
- CI TTFields + 5FU ([3]; 48 h): 1.348
- CI TTFields + 5FU ([3]; 72 h): 1.326
- CI TTFields + 5FU + 2Gy ([3]; 72 h): 1.345
- surviving fraction [3]: significantly reduced

Compound: CCc1c2c(nc3ccc(OC(=O)N4CCC(N5CCCCC5)CC4)cc13)-c1cc3c(c(=O)n1C2)COC(=O)[C@]3(O)CC [Irino, Irinotecan]
- effect of combinations of TTFields, agent and/or IR on cell survival [4]: synergistic effects
- CI Irino + 2Gy ([4]; 24 h): 1.022
- CI TTFields + Irino ([4]; 24 h): 1.082
- CI TTFields + Irino + 2Gy ([4]; 24 h): 2.360
- CI Irino + 2Gy ([4]; 48 h): 1.009
- CI TTFields + Irino ([4]; 48 h): 0.974
- CI TTFields + Irino + 2Gy ([4]; 48 h): 2.335
- CI Irino + 2Gy ([4]; 72 h): 1.132
- CI TTFields + Irino ([4]; 72 h): 1.030
- CI TTFields + Irino + 2Gy ([4]; 72 h): 4.454
- surviving fraction [4]: significantly reduced
- effect of combinations of TTFields, agent and/or IR on cell survival [1]: synergistic effects
- CI Irino + 2Gy ([1]; 24 h): 1.064
- CI TTFields + Irino ([1]; 24 h): 1.483
- CI TTFields + Irino + 2Gy ([1]; 24 h): 1.763
- CI Irino + 2Gy ([1]; 48 h): 1.244
- CI TTFields + Irino ([1]; 48 h): 1.174
- CI TTFields + Irino + 2Gy ([1]; 48 h): 1.463
- CI Irino + 2Gy ([1]; 72 h): 1.275
- CI TTFields + Irino ([1]; 72 h): 1.136
- CI TTFields + Irino + 2Gy ([1]; 72 h): 2.501
- surviving fraction [1]: significantly reduced
- CI TTFields + Irino [7]: 1.821
- effect of combinations of TTFields, agent and/or IR on cell survival [3]: synergistic effects
- CI Irino + 2Gy ([3]; 24 h): 1.244
- CI TTFields + Irino ([3]; 24 h): 1.388
- CI TTFields + Irino + 2Gy ([3]; 24 h): 2.365
- CI Irino + 2Gy ([3]; 48 h): 1.012
- CI TTFields + Irino + 2Gy ([3]; 48 h): 2.130
- CI Irino + 2Gy ([3]; 72 h): 1.027
- CI TTFields + Irino ([3]; 72 h): 2.081
- CI TTFields + Irino + 2Gy ([3]; 72 h): 2.051
- surviving fraction [3]: significantly reduced
